Experimental data as given in patent publication US9560869B2, “Food composition comprising desferrichrysin” (NESTEC S.A., priority 2013, dated 2017).

Columns and labels:
[1] = Colour change of fortified yoghurt during storage at 37° C. for 120 days (CIELAB); format: physicochemical; conditions: for colour change over time (in words): stored at 37° C. for 120 days
Procedure: (§1) Commercial yoghurt, Nestlé Jogolino™ Strawberry/Banana yoghurt containing 15% banana puree and 10% strawberry puree was iron fortified by the addition of different iron salts to 5 kg yoghurt as reported in the table below. The amounts were chosen to provide approximately 0.8 mg iron per 100 g yoghurt. […] Colour measurements were performed in 1×1 cm polystyrene cuvettes using an X-Rite ColorEye 7000A colorimeter. The colorimeter was set up with a D65 light source, 10 degree observer angle and with specular component included. The colour difference between the yoghurt with no iron salts and the iron fortified yoghurt was measured for each iron salt and expressed as ΔEab* using the CIELAB colour scale. 70 g samples of the fortified yoghurt samples described above were placed in 100 mL glass jars and stored at 37° C. for 120 days. Colour measurements were performed at a range of time intervals.

[2] = Colour difference of iron fortified strawberry/banana yoghurt vs yoghurt with no iron salts after flash pasteurization (CIELAB); format: physicochemical
Procedure: as §1, with “scale.” for “scale. 70 g samples of the fortified yoghurt samples described above were placed in 100 mL glass jars and stored at 37° C. for 120 days. Colour measurements were performed at a range of time intervals.”

[3] = in vivo; cited from earlier work

| Compound | colour change over time (in words) [1] | colour compared with yoghurt with no added iron (in words) ([2]; after flash pasteurization at 105° C. for 2 minutes) | ΔEab* ([2]; colour difference vs yoghurt with no iron salts, approx. 0.8 mg iron per 100 g yoghurt, flash pasteurized at 105° C. for 2 minutes) | ΔEab* day 7 ([1]; stored at 37° C., vs colour immediately after pasteurization, day 7) | ΔEab* day 30 ([1]; stored at 37° C., vs colour immediately after pasteurization, day 30) | ΔEab* day 60 ([1]; stored at 37° C., vs colour immediately after pasteurization, day 60) | ΔEab* day 120 ([1]; stored at 37° C., vs colour immediately after pasteurization, day 120) | bioavailability of iron (in words) [3] |
| --- | --- | --- | --- | --- | --- | --- | --- | --- |
| O=S(=O)([O-])[O-].[Fe+2] [FeSO4 × H20, Ferrous sulphate, reference compound] | much greater colour changes | – | – | – | – | – | – | – |
| Ferrichrysin | smaller than the yoghurts fortified by the other iron salts | closest colour to the yoghurt with no added iron | 1.57 | 1.03 | 1.32 | 3.77 | 6.46 | good source of bioavailable iron |
